Measurements as given in article PMC9782297, “Integracides: Tetracyclic Triterpenoids from Fusarium sp.—Their 5-Lipoxygenase Inhibitory Potential and Structure–Activity Relation Using In Vitro and Molecular Docking Studies” (Life, 2022).

Biological target: 5-LOX (5-lipoxygenase)
Test: 5-Lipoxygenase inhibitory assay
Assay type: biochemical
Settings: conc. 0.001, 0.01, 1.0 and 10 µM; zileuton positive control; read-out: 5-LOX inhibition IC50
Method: Optical rotation was estimated using a 341LC Perkin-Elmer polarimeter (Perkin-Elmer, Waltham, MA, USA). UV and IR were assessed employing Shimadzu UV/VIS 1601 and IR-400 spectrophotometers (Shimadzu, Kyoto, Japan), respectively. Orbitrap LTQ (ThermoFinnigan, Bremen, Germany) and 850 INOVA BRUKER (Bruker BioSpin, Billerica, MA, USA) were utilized for HRESIMS and NMR measuring. The chromatographic investigation was achieved utilizing SiO260/Sephadex LH-20/RP-18, in addition to a 6-mL RP-18 LiChrolut extraction tube (Merck/Darmstadt/Germany).
IC50s were estimated by regression analysis (GraphPad-InStat 3, GraphPad Software, San Diego, CA, USA). The % 5-LOX inhibition of and IC50s are listed as mean-values ±SD. Statistical significance was analyzed among the samples by one-way-ANOVA and subsequently by Tukey–Kramer test (p < 0.005).

Row | SMILES | IC50 [nM]
1 | C=C(CCC(C)C1(O)CCC2C3=C(C(O)C(OC(C)=O)C21C)C1(C)CC(O)C(OC(C)=O)C(C)(C)C1CC3)C(C)C (stereo not drawn) [Compound 1, integracide L] | 3450
2 | C=C(CC[C@@H](C)[C@H]1CC=C2C3=C([C@@H](O)[C@H](OC(C)=O)[C@@]21C)[C@@]1(C)C[C@@H](O)[C@H](O)C(C)(C)[C@@H]1CC3)C(C)C [Compound 2, integracide B] | 3970
3 | C=C(CCC(C)C1CC=C2C3=C(C(O)C(OC(C)=O)C21C)C1(C)CC(O)C(OC(C)=O)C(C)(C)C1CC3)C(C)C (stereo not drawn) [Compound 3, integracide F] | 2760
4 | C=C(CCC(C)C1CC=C2C3=C(C(O)C(OC(C)=O)C21C)C1(C)CC(O)C(OC(=O)CCCCCCCCCO)C(C)(C)C1CC3)C(C)C (stereo not drawn) [Compound 4, integracide G] | 1180
5 | C=C(CCC(C)C1CC=C2C3=C(C(O)C(OC(C)=O)C21C)C1(C)CC(OC(C)=O)C(OC(C)=O)C(C)(C)C1CC3)C(C)C (stereo not drawn) [Compound 5, integracide H] | 1460
6 | C=C(CCC(C)C1CC=C2C3=C(C(O)C(OC(C)=O)C21C)C1(C)CC(O)C(OC(=O)c2ccc(O)cc2)C(C)(C)C1CC3)C(C)C (stereo not drawn) [Compound 6, integracide J] | 2010
